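Interpolation was linear, between the two tested concentrations surrounding the appropriate level; five concentrations were tested over 48 hours in 96-well plates. At the GI50, growth is halved.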 The source made the active and inactive calls. Rule as the data show it: active = GI50 up to about 1.1 µM and inactive = higher.
Key:
Assay in all cases: DTP human tumour cell line panel, 48 h
HCT-116 = tested on: HCT-116
PC-3 = tested on: PC-3
ACHN = tested on: ACHN
U-251 = tested on: U-251
NCI-H460 = tested on: NCI-H460
Hs-578T = tested on: Hs-578T
M14 = tested on: M14
SN12C = tested on: SN12C
EKVX = tested on: EKVX
HOP-62 = tested on: HOP-62
UACC-62 = tested on: UACC-62
SK-MEL-28 = tested on: SK-MEL-28
RPMI-8226 = tested on: RPMI-8226
TK-10 = tested on: TK-10
HOP-92 = tested on: HOP-92
MDA-MB-231 = tested on: MDA-MB-231
CAKI-1 = tested on: CAKI-1
MDA-N = tested on: MDA-N
NCI-H522 = tested on: NCI-H522
SK-OV-3 = tested on: SK-OV-3

| SMILES | GI50 (HCT-116) | GI50 (PC-3) | GI50 (ACHN) | GI50 (U-251) | GI50 (NCI-H460) | GI50 (Hs-578T) | GI50 (M14) | GI50 (SN12C) | GI50 (EKVX) | GI50 (HOP-62) | GI50 (UACC-62) | GI50 (SK-MEL-28) | GI50 (RPMI-8226) | GI50 (TK-10) | GI50 (HOP-92) | GI50 (MDA-MB-231) | GI50 (CAKI-1) | GI50 (MDA-N) | GI50 (NCI-H522) | GI50 (SK-OV-3) |
| --- | --- | --- | --- | --- | --- | --- | --- | --- | --- | --- | --- | --- | --- | --- | --- | --- | --- | --- | --- | --- |
| O=C1Nc2ccccc2/C1=c1\[nH]c(=O)/c(=C\c2ccc(OCc3ccccc3)cn2)[nH]c1=O | 85.7 µM (inactive) | > 100 µM (inactive) | 33.7 µM (inactive) | 17.9 µM (inactive) | > 100 µM (inactive) | 21.4 µM (inactive) | 56.6 µM (inactive) | > 100 µM (inactive) | 86.7 µM (inactive) | 20 µM (inactive) | 67 µM (inactive) | > 100 µM (inactive) | > 100 µM (inactive) | 22.4 µM (inactive) | 26.6 µM (inactive) | 35.1 µM (inactive) | 0.303 µM (active) | 83.2 µM (inactive) | 94.4 µM (inactive) | 32.3 µM (inactive) |
| CC(=N\N=C\c1ccccn1)/C(C)=N/N=C(C)/C(C)=N/N=C/c1ccccn1 | > 100 µM (inactive) | > 100 µM (inactive) | > 100 µM (inactive) | > 100 µM (inactive) | > 100 µM (inactive) | > 100 µM (inactive) | > 100 µM (inactive) | > 100 µM (inactive) | > 100 µM (inactive) | > 100 µM (inactive) | – | > 100 µM (inactive) | > 100 µM (inactive) | > 100 µM (inactive) | > 100 µM (inactive) | > 100 µM (inactive) | > 100 µM (inactive) | > 100 µM (inactive) | > 100 µM (inactive) | > 100 µM (inactive) |
| O=C(NCP(=O)(c1ccccc1)c1ccccc1)OCc1ccccc1 | > 100 µM (inactive) | 64.3 µM (inactive) | > 100 µM (inactive) | 84.5 µM (inactive) | > 100 µM (inactive) | 43.6 µM (inactive) | > 100 µM (inactive) | > 100 µM (inactive) | > 100 µM (inactive) | 27.4 µM (inactive) | > 100 µM (inactive) | > 100 µM (inactive) | > 100 µM (inactive) | > 100 µM (inactive) | 40 µM (inactive) | 60.1 µM (inactive) | > 100 µM (inactive) | > 100 µM (inactive) | 39.4 µM (inactive) | 67.3 µM (inactive) |
| NN=C(CC(O)(C(F)(F)Cl)C(F)(F)Cl)CC(O)(C(F)(F)Cl)C(F)(F)Cl | > 10 µM (inactive) | > 10 µM (inactive) | > 10 µM (inactive) | > 10 µM (inactive) | > 10 µM (inactive) | > 10 µM (inactive) | > 10 µM (inactive) | > 10 µM (inactive) | > 10 µM (inactive) | > 10 µM (inactive) | > 10 µM (inactive) | > 10 µM (inactive) | > 10 µM (inactive) | > 10 µM (inactive) | > 10 µM (inactive) | > 10 µM (inactive) | > 10 µM (inactive) | > 10 µM (inactive) | > 10 µM (inactive) | > 10 µM (inactive) |
| NCC(=O)Nc1ccc(S(=O)(=O)O)c2cc(S(=O)(=O)O)cc(S(=O)(=O)O)c12 | > 100 µM (inactive) | > 100 µM (inactive) | > 100 µM (inactive) | > 100 µM (inactive) | – | > 100 µM (inactive) | > 100 µM (inactive) | > 100 µM (inactive) | > 100 µM (inactive) | > 100 µM (inactive) | > 100 µM (inactive) | > 100 µM (inactive) | > 100 µM (inactive) | > 100 µM (inactive) | > 100 µM (inactive) | > 100 µM (inactive) | > 100 µM (inactive) | > 100 µM (inactive) | > 100 µM (inactive) | > 100 µM (inactive) |
| O=c1oc2ccc([N+](=O)[O-])cc2cc1Br | > 100 µM (inactive) | > 100 µM (inactive) | 78.5 µM (inactive) | > 100 µM (inactive) | > 100 µM (inactive) | > 100 µM (inactive) | 35.7 µM (inactive) | > 100 µM (inactive) | > 100 µM (inactive) | 71.6 µM (inactive) | 31.6 µM (inactive) | > 100 µM (inactive) | 53.7 µM (inactive) | > 100 µM (inactive) | 86.3 µM (inactive) | > 100 µM (inactive) | > 100 µM (inactive) | > 100 µM (inactive) | > 100 µM (inactive) | – |
| CCc1nnc(S)n1/N=C\c1ccc(-c2ccccc2[N+](=O)[O-])o1 | 32.3 µM (inactive) | 41.5 µM (inactive) | 52.5 µM (inactive) | 38.5 µM (inactive) | – | 37.4 µM (inactive) | 39.7 µM (inactive) | 47.3 µM (inactive) | 21.1 µM (inactive) | 56.5 µM (inactive) | 37.6 µM (inactive) | – | 13.2 µM (inactive) | > 100 µM (inactive) | 49.3 µM (inactive) | 47.2 µM (inactive) | 51.4 µM (inactive) | 17.6 µM (inactive) | 31.6 µM (inactive) | 36.1 µM (inactive) |
| Cc1ccc(S(=O)(=O)NC(=O)NC(CC(N)=O)C(=O)O)cc1 (stereo unspecified) | > 100 µM (inactive) | > 100 µM (inactive) | > 100 µM (inactive) | > 100 µM (inactive) | > 100 µM (inactive) | > 100 µM (inactive) | > 100 µM (inactive) | > 100 µM (inactive) | – | > 100 µM (inactive) | > 100 µM (inactive) | > 100 µM (inactive) | > 100 µM (inactive) | > 100 µM (inactive) | > 100 µM (inactive) | > 100 µM (inactive) | – | > 100 µM (inactive) | > 100 µM (inactive) | > 100 µM (inactive) |
| COC(=O)C(Cc1ccccc1)OC(=O)C(N)CC(=O)O (stereo unspecified) | > 100 µM (inactive) | > 100 µM (inactive) | > 100 µM (inactive) | – | > 100 µM (inactive) | > 100 µM (inactive) | > 100 µM (inactive) | > 100 µM (inactive) | > 100 µM (inactive) | > 100 µM (inactive) | > 100 µM (inactive) | > 100 µM (inactive) | > 100 µM (inactive) | > 100 µM (inactive) | > 100 µM (inactive) | > 100 µM (inactive) | > 100 µM (inactive) | > 100 µM (inactive) | > 100 µM (inactive) | > 100 µM (inactive) |
| CC1(C)CC2=C(Sc3ccccc3N2)C(=O)C1C(=O)C(=O)Nc1cc(Cl)ccc1Cl (stereo unspecified) | > 100 µM (inactive) | 84.5 µM (inactive) | > 100 µM (inactive) | > 100 µM (inactive) | 14.9 µM (inactive) | > 100 µM (inactive) | > 100 µM (inactive) | > 100 µM (inactive) | > 100 µM (inactive) | – | > 100 µM (inactive) | > 100 µM (inactive) | > 100 µM (inactive) | – | > 100 µM (inactive) | > 100 µM (inactive) | > 100 µM (inactive) | > 100 µM (inactive) | > 100 µM (inactive) | > 100 µM (inactive) |
| CC12CCC(=O)C=C1CCC1C2C(O)CC2(C)C(c3csc(N)n3)CCC12.O=S(=O)(O)c1ccc(Br)cc1 (stereo unspecified) | > 100 µM (inactive) | > 100 µM (inactive) | > 100 µM (inactive) | > 100 µM (inactive) | – | > 100 µM (inactive) | > 100 µM (inactive) | > 100 µM (inactive) | > 100 µM (inactive) | > 100 µM (inactive) | > 100 µM (inactive) | > 100 µM (inactive) | > 100 µM (inactive) | > 100 µM (inactive) | > 100 µM (inactive) | > 100 µM (inactive) | > 100 µM (inactive) | > 100 µM (inactive) | > 100 µM (inactive) | > 100 µM (inactive) |
| CC(=O)Oc1ccc2c3c1O[C@H]1[C@H](O)CC[C@@]4(O)[C@@H](C2)N(C)CC[C@]314 | > 100 µM (inactive) | > 100 µM (inactive) | > 100 µM (inactive) | > 100 µM (inactive) | – | > 100 µM (inactive) | > 100 µM (inactive) | > 100 µM (inactive) | > 100 µM (inactive) | > 100 µM (inactive) | > 100 µM (inactive) | > 100 µM (inactive) | > 100 µM (inactive) | > 100 µM (inactive) | > 100 µM (inactive) | > 100 µM (inactive) | > 100 µM (inactive) | > 100 µM (inactive) | > 100 µM (inactive) | > 100 µM (inactive) |
| O=S1(=O)c2ccccc2C(Nc2ccccc2)N1c1ccccc1 (stereo unspecified) | > 100 µM (inactive) | > 100 µM (inactive) | > 100 µM (inactive) | 61 µM (inactive) | 72.9 µM (inactive) | > 100 µM (inactive) | – | > 100 µM (inactive) | > 100 µM (inactive) | > 100 µM (inactive) | > 100 µM (inactive) | > 100 µM (inactive) | > 100 µM (inactive) | > 100 µM (inactive) | 38.5 µM (inactive) | > 100 µM (inactive) | > 100 µM (inactive) | > 100 µM (inactive) | 24.7 µM (inactive) | > 100 µM (inactive) |
| CC(=N\N=C\c1ccccn1)/C(C)=N/N=C(C)/C(C)=N/N=C(C)/C(C)=N/N=C/c1ccccn1 | > 100 µM (inactive) | > 100 µM (inactive) | > 100 µM (inactive) | > 100 µM (inactive) | > 100 µM (inactive) | > 100 µM (inactive) | > 100 µM (inactive) | > 100 µM (inactive) | > 100 µM (inactive) | > 100 µM (inactive) | – | > 100 µM (inactive) | > 100 µM (inactive) | > 100 µM (inactive) | > 100 µM (inactive) | > 100 µM (inactive) | > 100 µM (inactive) | > 100 µM (inactive) | > 100 µM (inactive) | > 100 µM (inactive) |

Reference: ChEMBL document CHEMBL1201862, “PubChem BioAssay data set” (2004)
